The source of these data is patent US12643894B2, “BCL-2 family proteins modulating compounds for cancer treatment” (CENTRE REGIONAL DE LUTTE CONTRE LE CANCER FRANCOIS BACLESSE, priority 2020, dated 2026).

The target in one assay is T1, Mcl-1 (Homo sapiens, UniProt Q07820).
T1 construct: endogenous in cells; host or cells: IGROV1-R10 (human platinum-resistant ovarian carcinoma)
Description: Target expression analysis by western blot (Mcl-1) in IGROV1-R10 cells. It counts as cell-based. The following applies: 24 h exposure, 1 μM. The procedure: (§1) Human platinum resistant ovarian carcinoma cells IGROV1-R10 were used. This cell line was grown in RPMI 1640 medium supplemented with 2 mM Glutamax™, 25 mM HEPES, 10% fetal calf serum, and 33 mM sodium bicarbonate (Fisher Scientific, Illkirch, France). Cells were maintained at 37° C. in a humid atmosphere with 5% C02. Cells were seeded in 25 cm^2 flasks. After 24 h, exponentially growing cells were exposed to 1 μM of compounds for 24 h. CRBN-PBM1-001 targeting both Mcl-1 and CRBN and Pyridoclax were designed and synthetized by the CERMN (Centre d'Etudes et de Recherche sur le Médicament de Normandie) and dissolved in DiMethyl SulfOxide (DMSO, Sigma-Aldrich).
(§2) Cells were rinsed with ice-cold PBS, suspended in a lysis buffer [RIPA: NaCl 150 mM, Tris (pH 8) 50 mM, Triton X100 1%, PMSF 4 mM, EDTA 5 mM, NaF 10 mM, NaPPi 10 mM, Na3VO4 1 mM, aprotinin 0.5 μL/mL and 4.6 mL ultra-pure water] and incubated on ice for 30 min. Lysates were collected after centrifugation (13200 g, 10 min, 4° C.) and protein concentrations were determined using the Bradford assay (Bio-Rad, Hercules, USA). Equal amounts of protein (25 μg) were separated by SDS-PAGE on a 4-15% gradient polyacrylamide Mini-PROTEAN®TGX™ precast gel (Bio-Rad). […] The relative intensities of the protein bands were quantified using the ImageJ software, and the values were normalized to the intensities of the respective Actin signals. […]
For orientation: In western blotting, separated proteins are transferred to a membrane and probed.

The next assay concerns the target T2, Bcl-xL (Homo sapiens, UniProt Q07817).
T2 construct: endogenous in cells; host or cells: IGROV1-R10 (human platinum-resistant ovarian carcinoma)
Put plainly: Target expression analysis by western blot (Bcl-xL) in IGROV1-R10 cells. In kind it is cell-based. Conditions: 24 h exposure, 1 μM. The procedure: as §1, §2

Each structure is given as a SMILES string.

T1 sequence (Q07820 whole entry): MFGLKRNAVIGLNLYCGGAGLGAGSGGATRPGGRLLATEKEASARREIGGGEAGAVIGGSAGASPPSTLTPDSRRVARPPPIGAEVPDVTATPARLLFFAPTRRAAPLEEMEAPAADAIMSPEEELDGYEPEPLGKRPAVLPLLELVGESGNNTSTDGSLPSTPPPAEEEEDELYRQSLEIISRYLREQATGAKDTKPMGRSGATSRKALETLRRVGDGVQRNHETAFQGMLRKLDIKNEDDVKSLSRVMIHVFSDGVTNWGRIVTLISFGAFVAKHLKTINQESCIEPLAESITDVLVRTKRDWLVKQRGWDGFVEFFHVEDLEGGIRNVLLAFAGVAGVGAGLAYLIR
T2 sequence (Q07817 whole entry): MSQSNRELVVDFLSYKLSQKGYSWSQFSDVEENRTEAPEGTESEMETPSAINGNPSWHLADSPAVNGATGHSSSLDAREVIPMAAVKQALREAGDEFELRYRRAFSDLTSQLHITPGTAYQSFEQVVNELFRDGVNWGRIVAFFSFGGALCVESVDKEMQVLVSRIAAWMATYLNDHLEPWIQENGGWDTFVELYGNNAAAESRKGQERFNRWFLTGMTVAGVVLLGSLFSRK

Consider `Cc1cc(-c2ncc(-c3cccnc3)cc2/C=C/c2ccccc2)cnc1-c1cccnc1` [Pyridoclax, reference compound], for which, on Mcl-1 (single agent, western blot), the “Mcl-1 expression (modulation)” value is “did not modulate”.
For `Cc1cc(-c2ncc(C#CCOCCOCCNc3cccc4c3C(=O)N(C3CCC(=O)NC3=O)C4=O)cc2/C=C/c2ccccc2)cnc1-c1cccnc1` (stereo not drawn) [CRBN-PBM1-001], the “decrease of Mcl-1 expression” value at Mcl-1 (densitometry analysis of western blot normalized to Actin) worked out at 52%. The Bcl-xL expression entry on Bcl-xL is on record as “not affected”.
